The values below are quoted from earlier work in paper PMC10651166 (Journal of acquired immune deficiency syndromes (1999), 2023).

Values after ≈ are worked out from the molar mass of the structure shown.

The data set concerns wild-type virus (HIV). The note with it: protein-adjusted.

Broadly, the EC50 is the concentration needed to bring the measured effect to its halfway point. As to `CC(C)CN(C[C@@H](O)[C@H](Cc1ccccc1)NC(=O)O[C@H]1CO[C@H]2OCC[C@H]21)S(=O)(=O)c1ccc(N)cc1` [Darunavir], the EC50 was 0.055 µg/mL (≈ 0.1 µM).
